Measured values published in patent US4478849A, “Secondary amines, their preparation and use in pharmaceutical compositions” (Beecham Group Limited, priority 1978, dated 1984).

Columns and labels:
[1] = relative potency / activity (test not specified)
blood glucose = experiment: hypoglycaemic activity: reduction in area under blood glucose curve after glucose load in fasted mice; type: in vivo, female CFLP mice; conditions: for anti-hyperglycaemic activity (in words): general statement, no dose given; for inhibition in vivo at 5 mg/kg: Mus musculus, po, 2 h, 5 mg/kg po, 30 min before glucose load 1 g/kg sc, 2 hour period, versus control mice
Method: Female CFLP mice, weighing approximately 25 g, were fasted for 24 hours prior to the study. The compounds under study were dosed orally (20 mg and 5 mg/kg) to each of 8 mice. 30 minutes later a blood sample ([…]) was obtained from the tail for the analysis of blood glucose. Immediately after taking this blood sample, each mouse was given a glucose load (1 g/kg body weight sub-cutaneously). Blood samples were then obtained from each mouse at 30 minute intervals for 120 minutes.
Compounds that produced a significant (P<0.05) reduction of blood glucose, compared with control mice given water, at any time interval were considered active. The area under the blood glucose curve over the 2 hour period after giving the glucose load was calculated for each compound and compared with the value for control animals. Thus a compound would give a 100% reduction in the area under the blood glucose curve if the blood glucose was maintained at the same level as in untreated fasted animals. Reduction in the glucose curve of more than 100% indicate that a compound, in spite of being given a glucose load, maintained blood glucose levels below that found in control fasted mice.

genetically obese mice = experiment: carcass lipid of genetically obese mice after daily oral dosing for 28 days (anti-obesity); type: in vivo, mouse (genetically obese); conditions: for anti-obesity activity (in words): general statement, no dose given; for g - lipid per mouse, Treated: daily for 28 days
Method: (i) The compounds and a comparison compound (salbutamol) were dosed daily in water or carboxymethylcellulose suspension to genetically obese mice by oral gavage for 28 days. At the end of that time the carcass composition was determined.

[2] = system: 5-hydroxytryptamine-induced bronchoconstriction; experiment: bronchodilator potency in anaesthetised artificially respired guinea pig (Konzett-Rossler preparation); type: in vivo; conditions: inhibition of 5-hydroxytryptamine-induced bronchoconstriction
CFLP mice = experiment: acute toxicity, single lethal dose; type: in vivo; conditions: po
Description: Other compounds of the invention have similar low toxicities.

Row | SMILES | relative potency / activity (in words) [1] | anti-hyperglycaemic activity (in words) (blood glucose) | anti-obesity activity (in words) (genetically obese mice) | inhibition in vivo at 5 mg/kg (blood glucose) [%] | also measured
1 | COC(=O)c1ccc(CC(C)NCC(O)c2ccc(O)c(CO)c2)cc1 (centres unmarked) [21 (higher melting), N-[2-(4-carbomethoxyphenyl)-1-methylethyl]-2-hydroxy-2-(4-hydroxy-3-hydroxymethylphenyl) ethanamine] | more potent diastereoisomer | particularly worthy of mention in view of their anti-hyperglycaemic activity | particularly worthy of mention in view of their anti-obesity activity |  | 
2 | COC(=O)c1ccc(CC(C)NCC(O)c2ccc(O)c(CO)c2)cc1 (centres unmarked) [Example 1] |  | particularly worthy of mention in view of their anti-hyperglycaemic activity | particularly worthy of mention in view of their anti-obesity activity | 157 | bronchodilator potency relative to salbutamol [2]: one twelfth as potent as salbutamol; single lethal dose (CFLP mice): > 900 mg/kg; g - lipid per mouse, Treated (genetically obese mice; 8 mg/kg po, control 23.3 ± 0.7): 20.8 ± 0.7 g
3 | COC(=O)c1ccc(CC(C)NCC(O)c2ccccc2)cc1 (centres unmarked) [Example 22, N-(2-[4-Carbomethoxyphenyl]-1-methylethyl)-2-hydroxy-2-phenylethanamine] |  | particularly worthy of mention in view of their anti-hyperglycaemic activity | particularly worthy of mention in view of their anti-obesity activity | 172 | g - lipid per mouse, Treated (genetically obese mice; 9 mg/kg po, control 18.9 ± 0.66): 13.9 ± 0.65 g
4 | COC(=O)c1ccc(CC(C)NCC(O)c2ccccc2Cl)cc1 (centres unmarked) [Example 28, N-(2-[4-Carbomethoxyphenyl]-1-methylethyl)-2-(2-chlorophenyl)-2-hydroxyethanamine] |  |  |  | 37 | g - lipid per mouse, Treated (genetically obese mice; 19 mg/kg po, control 17.0 ± 0.67): 14.9 ± 0.37 g
5 | COC(=O)c1ccc(CC(C)NCC(O)c2cc(Cl)c(N)c(Cl)c2)cc1 (centres unmarked) [Example 30, N-(2-[4-Carbomethoxyphenyl]-1-methylethyl)-2-(4-amino-3,5-dichlorophenyl)-2-hydroxyethanamine] |  | particularly worthy of mention in view of their anti-hyperglycaemic activity | particularly worthy of mention in view of their anti-obesity activity | 141 | g - lipid per mouse, Treated (genetically obese mice; 22 mg/kg po, control 19.1 ± 0.47): 14.0 ± 0.57 g
6 | COC(=O)c1ccc(CC(C)NCC(O)c2ccccc2)cc1 (centres unmarked) [Example 59 (mp 83°-4°), N-[2-(4-carbomethoxyphenyl)-1-methylethyl]-2-hydroxy-2-phenylethanamine] | more potent diastereoisomer |  |  |  | 
